“Also recorded” adds a separate entry of the source.

Series [1] has as its target α-glucosidase (Saccharomyces cerevisiae, UniProt P53341). Put plainly: α-Glucosidase inhibition assay (pNPG). Type of series: biochemical. As to conditions: at a concentration of 200 μM; for inhibition at 200 µM: read-out: α-glucosidase inhibition rate. How it is done: For this assay, 20 μL of each sample, 20 μL of α-glucosidase solution (0.6 U/mL), and PBS solution (20 μL) were mixed, added to a 96-well plate, and incubated at 37 °C for 10 min, and then, pNPG solution (20 μL) was added and incubation continued for 30 min. At the end of incubation, the reaction was terminated with the addition of 80 μL of NaCO3 (0.2 M). The release of p-nitrophenol was measured by placing the 96-well plate at 405 nm on an enzyme meter (positive control: acarbose). The test was repeated three times for all samples.Inhibition (%) = (1 − A405 sample/A405 control) × 100%.

The test system of series [2] is NO release in LPS-induced RAW264.7 macrophages. Put plainly: Inhibition of NO production induced by LPS in RAW264.7 cells. Type of series: cell-based. The conditions noted are these: LPS-induced RAW264.7 cells; for IC50: RAW264.7, 24 h, LPS 2 μg/mL, 24 h. As for the experimental part: (§1) RAW264.7 cells were added to a 96-well plate (100 μL/well) at 1.5 × 10^5 cells/mL and incubated for 24 h (37 °C). The control group, model group, and experimental group were set up, with 4 replicates in each group. After incubation, the supernatant was discarded. The cells in the experimental group were treated with different concentrations of compounds, and each group was incubated with lipopolysaccharides (2 μg/mL) for 24 h (37 °C). According to the steps and requirements of the kit instructions, NO, TNF-α, and IL-6 content was detected.

Series [3] in a line: RAW264.7 cell viability experiment (MTT). As to conditions: mouse, RAW264.7 cells.
Experimental: (§2) RAW264.7 cells were cultured in DMEM containing 1% penicillin/streptomycin and 10% bovine fetal serum in an incubator (5% CO2, 37 °C).
(§3) RAW264.7 cells in the logarithmic growth phase were taken and adjusted to 1.5 × 10^5 cells/mL. The cells were inoculated in 96-well plates and divided into a control group, a blank group, and an experimental group with different concentrations. Each group had 4 duplicate wells and was incubated for 24 h (37 °C). Different concentrations of compounds (100 μL) were added to 96-well plates, and 100 μL of culture medium was added to the blank group and the control group, respectively, and incubated for 24 h. MTT (5 mg/mL, 10 μL) was incubated for 4 h (37 °C) per well. The OD value was measured at 450 nm using a microplate reader to calculate the cell viability.
Series [4] in a line: ABTS free radical-scavenging assay. As to conditions: 6 min reaction, 734 nm. As for the experimental part: In order to explore the antioxidant capacity of compounds 1–7, DPPH and ABTS free radical-scavenging methods were used in this experiment (ascorbic acid as a positive control). During the experimental operation, the antioxidant test method proposed by Zhu et al. was used as a reference. Different concentrations of each compound solution were added to 96-well plates, and then 100 μL of DPPH/ABTS solution was added to each well, and the reaction was performed at room temperature for 30 min (DPPH)/6 min (ABTS). After the reaction, the OD values of each well were measured at 517 nm (DPPH)/734 nm (ABTS) using a microplate reader. Finally, according to the measured OD value, the DPPH and ABTS free radical-scavenging rates of each sample were calculated. In order to ensure the accuracy and reliability of the experimental data, all samples were tested three times.Clearance = [1 − (A sample group − A control group)/A blank group] × 100%

Series [5] concerns TNF-α. The experiment in a line: ELISA of TNF-α expression in LPS-stimulated RAW264.7 cells. Type of series: cell-based. The conditions noted are these: 50 μM. How it is done: as §1
For orientation: In an ELISA, binding on a coated surface is turned into a signal by an enzyme label.

In series [6] the test system is IL-6. The experiment in a line: ELISA of IL-6 expression in LPS-stimulated RAW264.7 cells. Type of series: cell-based. As to conditions: lowest concentration 12.5 μM. As for the experimental part: as §1
Series [7] deals with RAW264.7 cells. As to conditions: 50 µM.
Experimental: as §2, §3
Where [8] appears, read: Mus musculus, 50 µM, read-out: NO inhibition rate (%).

Chain of α-glucosidase (P53341 whole entry): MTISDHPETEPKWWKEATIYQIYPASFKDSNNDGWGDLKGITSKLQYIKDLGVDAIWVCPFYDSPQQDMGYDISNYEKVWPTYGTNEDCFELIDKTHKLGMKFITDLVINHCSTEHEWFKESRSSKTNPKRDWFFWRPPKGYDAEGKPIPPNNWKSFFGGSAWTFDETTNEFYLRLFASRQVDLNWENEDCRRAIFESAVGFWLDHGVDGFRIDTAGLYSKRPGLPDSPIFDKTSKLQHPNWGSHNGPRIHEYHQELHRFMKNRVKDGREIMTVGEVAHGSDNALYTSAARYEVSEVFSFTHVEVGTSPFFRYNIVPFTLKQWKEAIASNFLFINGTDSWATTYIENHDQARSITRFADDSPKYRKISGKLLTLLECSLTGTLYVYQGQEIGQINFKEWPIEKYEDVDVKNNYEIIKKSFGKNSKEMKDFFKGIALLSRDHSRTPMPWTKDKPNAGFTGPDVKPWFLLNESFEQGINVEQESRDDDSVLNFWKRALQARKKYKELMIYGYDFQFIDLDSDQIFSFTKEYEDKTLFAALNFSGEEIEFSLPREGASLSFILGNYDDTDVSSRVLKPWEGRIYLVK

The compound 4-(1-Methoxyethenyl)phenol [Compound 7] returned a α-glucosidase inhibition rate in series [1] of 41.1%.

As a reminder, the inhibition is the drop in the measured response relative to a control, in per cent. Broadly, the viability is a read-out of living cells in per cent, often relative to untreated cells. A low value points to more harm to the cells. Usually IC50 stands for the point on the concentration scale where inhibition reaches its midpoint. Higher therefore signals weaker potency in that assay. For the compound `COC(=O)C1OC(OCC(O)COC(=O)c2cc(OC)c(O)c(OC)c2)C(O)C(O)C1O` (stereo not shown) [Compound 1, Roxbubenzoate A], the inhibition at 50 µM in series [2] (setting [8]) came to 0%. The viability at 24 h, 50 µM in series [3] was found to be 100%. For the same compound, the IC50 in series [4] came to 107 ± 1.1 µM.

For `O=C1C[C@H](c2ccc(O)c(O)c2)Oc2cc(O)cc(O)c21` [Compound 2, (-)-eriodictyol], in series [2] (setting [8]), the inhibition at 50 µM came to 31.3%. Moreover, in series [1], the inhibition at 200 µM came out at 50.1%. Further, in series [3], the viability at 24 h, 50 µM came to 100%. In addition, in series [4], the IC50 was 142.6 ± 0.8 µM.

Consider `O=C1c2c(O)cc(O)cc2O[C@H](c2ccc(O)cc2)[C@H]1O` [Compound 3, aromadendrin], for which the IC50 in series [2] (Mus musculus) stood at 7.83 ± 2 µM. Also, in series [2] (setting [8]), the inhibition at 50 µM was 92.5%. In addition, in series [5], the “effect on TNF-α expression (ELISA)” value is “significant inhibitory activity”. In series [3], the viability at 24 h, 50 µM worked out at 100%. Moreover, the “effect on IL-6 expression (ELISA)” value in series [6] is “strong inhibitory effect; also recorded: dose-dependently suppressed”.

With `CC1=C(CC[C@H](C)O[C@H]2O[C@@H](CO)[C@H](O)[C@@H](O)[C@@H]2O)C(C)(C)C=CC1=O` [Compound 4, linarionoside A], the inhibition at 50 µM in series [2] (setting [8]) is 6.6%. Also, in series [1], the inhibition at 200 µM was 46.7%. This compound also gave a viability at 24 h, 50 µM in series [3] of 98.8%.

`S=C(S)N1CCCC1` [PDTC, Pyrrolidine dithiocarbamate, reference compound]: the IC50 in series [2] (Mus musculus) turned out to be 3.13 ± 0.3 µM. In series [2] (Mus musculus, 5 µM, positive control, read-out: NO inhibition rate (%)), the inhibition at 5 µM is 69.1%. The compound further yielded a viability at 24 h, 5 µM in series [3] of 98.5%.

With “(1R)-4-[(3R)-3-hydroxybutyl]-3,5,5-trimethylcyclohex-3-en-1-ol [Compound 6]”, the “Cell viability (%)” value in series [7] was 98.1%. In series [2] (50 µM), the “NO inhibition rate (%)” value is 0.8%. In series [4], this compound returned an IC50 of 128.3 ± 1.2 µM.

For the origin of these results see paper PMC11818921, “Biological Activities of Constituents from Rosa roxburghii and Their Mechanisms Based on Network Pharmacology and Biological Verification” (International Journal of Molecular Sciences, 2025).
